Consider four compounds from patent publication US5283256A, “Cholesterol-lowering agents” (Merck & Co., Inc., priority 1992, dated 1994).

Assay [1] concerns the target farnesyl transferase (Homo sapiens, UniProt P49354+P49356). Nature of the assay: Farnesyl-transferase assay (Ras farnesylation in vitro). It is filed as biochemical. The conditions noted are these: ras-CVLS, 3H-FPP 100 nM; 60 min, room temperature; read-out: Farnesyl transferase IC50 (inhibition of Ras farnesylation in vitro). The procedure: FARNESYL-TRANSFERASE ASSAY
I. PREPARATION OF SOLUTIONS REQUIRED FOR THE ASSAY
203.3 g MgCl2 was dissolved in 1.0 L distilled water, and filtered through a sterile filter and stored at 4° C.
264.5 g of HEPES was added to 700 mL distilled water followed by 56 mL of 1.0M MgCl2 The pH was adjusted to 7.5 with sodium hydroxide and the volume was brought to 1000 mL. The solution was filtered through a sterile filter and stored at 4° C.
iii. 0.5M Dithiothreitol (DTT, MW=154.24)
77.12 mg of DTT was dissolved in 1.0 mL of distilled water. A few drops of 10N NaOH was added to get the DTT to go into solution. 0.5M DTT was divided into 500 μL aliquots and stored at -20° C.
iv. Preparation of Assay Buffer (Prepare fresh daily)
100 μL of 0.5M DTT was added to 900 μL of 1.1M HEPES, pH 7.5 and 55.5 mM MgCl2 to yield a 10X buffer consisting of 1.0M HEPES, pH 7.5, 50 mM MgCl2 and 50 mM DTT.
v. Preparation of ^3 H-FPP
The ^3 H-FPP (NEN #NET-1042, MW=433.3) was used directly from the bottle as provided by NEN. The stock concentration of the ^3 H-FPP was 25 μM.
vi. Preparation of the reaction mix for Totals and unknown samples (on ice)
The reaction mix was prepared as below: […]
x. The filter mats were placed in counting bags, 30 mL of LKB β-scint cocktail was added and the filter mats were counted for 120 sec in the LKB β-plate counter […]
Percent inhibition was calculated according to the following equation: [formula] […]

Assay [2] addresses T1, squalene synthase (rat liver enzyme) (Rattus norvegicus, UniProt Q02769).
T1 construct: from tissue; host or cells: liver microsomes of male Charles River CD rats fed lovastatin
T1 sequence (Q02769 1-416): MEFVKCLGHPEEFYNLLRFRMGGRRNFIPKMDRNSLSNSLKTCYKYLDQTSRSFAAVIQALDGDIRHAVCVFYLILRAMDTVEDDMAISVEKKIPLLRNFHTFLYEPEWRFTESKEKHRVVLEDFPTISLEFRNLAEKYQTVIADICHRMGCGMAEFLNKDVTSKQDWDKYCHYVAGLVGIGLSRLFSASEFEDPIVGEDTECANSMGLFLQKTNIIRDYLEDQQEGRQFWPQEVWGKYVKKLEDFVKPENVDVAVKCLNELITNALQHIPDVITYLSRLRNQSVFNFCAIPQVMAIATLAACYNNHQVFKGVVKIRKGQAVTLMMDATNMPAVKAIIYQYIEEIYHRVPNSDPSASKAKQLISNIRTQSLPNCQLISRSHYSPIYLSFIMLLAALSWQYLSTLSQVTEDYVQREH
The experiment in a line: Squalene synthase assay, rat liver microsomes. It is filed as biochemical. The conditions noted are these: 3H-farnesyl pyrophosphate, 30° C., 20 min. Here is the method: The intrinsic squalene synthase inhibitory activity of representative compounds of this invention was measured by the standard in vitro protocol described below: […] Male, CHARLES RIVER CD rats (120 to 150 g) were fed a diet containing 0.1% lovastatin for 4 days. […] The homogenate was centrifuged twice at 20,000×g for 15 min. at 4° C., discarding the pellet each time. The supernatant was then centrifuged at 100,000×g for 1 hr at 4° C. The resulting microsomal pellet was resuspended in a volume of the above homogenizing buffer equal to one-fifth the volume of the original homogenate. […] The microsomal suspensions were stored in aliquots at -70° C. squalene synthase activity in these aliquots is stable for a least several months. Squalene Synthase Assay Reactions were performed in 1.2 mL polypropylene tube strips of 8. Buffer mixture and substrate mixture for the assay were prepared from the following solution: Buffer mixture contains 270 mM HEPES, pH 7.5, 20 mM Potassium fluoride and 5.4 mM Dithiothreitol (DTT). […] 400 μL of heptane layer was then removed into a minivial and mixed with 2.5 mL of scintillation fluid and the radioactivity was determined by liquid scintillation counting. […] Percent inhibition is calculated by the formula: [formula] IC50 values were determined by plotting the log of the concentration of the test compound versus the percentage inhibition. […]

Assay [3] deals with T2, squalene synthase (human HepG2 enzyme) (Homo sapiens, UniProt P37268).
T2 construct: The resulting pellet from the 100,000×g centrifugation, containing the squalene synthase; endogenous in cells; host or cells: HepG2 (ATCC HB 8065), microsomal pellet of sonicated cells
T2 sequence (P37268 1-417): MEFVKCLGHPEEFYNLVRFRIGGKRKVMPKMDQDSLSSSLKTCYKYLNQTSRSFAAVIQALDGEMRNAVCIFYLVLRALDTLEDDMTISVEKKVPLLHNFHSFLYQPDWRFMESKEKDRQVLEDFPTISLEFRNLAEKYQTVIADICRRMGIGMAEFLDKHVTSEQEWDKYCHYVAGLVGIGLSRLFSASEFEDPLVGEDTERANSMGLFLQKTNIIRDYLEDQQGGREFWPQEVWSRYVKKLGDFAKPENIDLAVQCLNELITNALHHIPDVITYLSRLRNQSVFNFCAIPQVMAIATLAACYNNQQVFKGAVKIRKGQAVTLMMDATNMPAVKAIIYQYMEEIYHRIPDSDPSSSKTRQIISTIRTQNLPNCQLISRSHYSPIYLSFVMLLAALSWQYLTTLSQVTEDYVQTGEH
The experiment in a line: Squalene synthase assay, human HepG2 cell enzyme. To be noted: 3H-farnesyl pyrophosphate, 30° C., 20 min. It is filed as biochemical. The procedure:
The intrinsic squalene synthase inhibitory activity of representative compounds of this invention was measured by the standard in vitro protocol described below:
PREPARATION OF HUMAN HepG2 Cell ENZYME
1. SOURCE: HEPG2 CELL LINE (Liver, hepatoblastoma, Human) ATCC No. HB 8065
2. CELL GROWTH AND MAINTENANCE
Culture Medium: Minimum essential medium (MEM) with non-essential amino acids, sodium pyruvate, and 10% fetal bovine serum. The medium was changed twice weekly. […] The growth medium was prepared as listed below.
SUBCULTURE PROCEDURE: The medium was removed and washed with PBS (Phosphate-Buffered Saline 15.6 mM, pH 7.0). Fresh trypsin (0.25%)-EDTA (0.02%) with Hank's Balanced Salt solution was added and the flask was allowed to stand for a minute before the trypsin solution was removed. The flask was incubated at 37° C. until cells detached. Fresh medium was added and the cells were dispersed and dispensed into new flasks. Subcultivation ratio: 1:6. […]
HARVEST: The medium was removed and the cells were washed with PBS. […] Cells were counted (2.5×10^9 yield from 18 flasks (75 cm^2)), and resuspended in 10 mL of 50mM HEPES (N-[2-Hydroxyethyl]piperazine-N'-[2-ethane sulfonic acid]) containing 5 mM MgCl2, 2 mM MnCl2, 10 mM DTT, pH 7.5 (enzyme suspension buffer). […]

Assay [4] has as its system Ras farnesylation. To be noted: Hancock et al., Casey et al., Schafer et al.; cited from earlier work.

On to `CCCCCCCC(=O)OC1C(O)C2(CCCC(OC(C)=O)C(C)C/C=C/c3ccccc3)OC(C(=O)O)C(O)(C(=O)O)C1(C(=O)O)O2` (centres unmarked) [Zaragozic Acid D], for which the IC50 in assay [1] was 100 nM; in assay [2], 6 nM; in assay [3] it was 1 nM.
As to `CCCCCCCCCC(=O)OC1C(O)C2(CCCC(OC(C)=O)C(C)C/C=C/c3ccccc3)OC(C(=O)O)C(O)(C(=O)O)C1(C(=O)O)O2` (centres unmarked) [Zaragozic Acid D2], the IC50 in assay [1] is 100 nM; in assay [2], 6 nM; in assay [3] it was 2 nM.
With `CC[C@H](C)C(=O)O[C@H]1C[C@@H](C)C=C2C=C[C@H](C)[C@H](CC[C@@H]3C[C@@H](O)CC(=O)O3)[C@H]21` [lovastatin], the “Inhibition of Ras farnesylation in vivo (in words)” value in assay [4] is given as “Inhibition of Ras farnesylation in vivo has been demonstrated”.
For the compound `CC[C@H](C)C(=O)O[C@H]1CCC=C2C=C[C@H](C)[C@H](CC[C@@H]3C[C@@H](O)CC(=O)O3)[C@H]21` [compactin], in assay [4], the “Inhibition of Ras farnesylation in vivo (in words)” value was “Inhibition of Ras farnesylation in vivo has been demonstrated”.
